According to US20250057807A1, “TREATING A DISEASE USING A […] ACTIVE INGREDIENT PRESENT IN A PSEUDO-TERNARY PHASE SYSTEM” (Hepion Pharmaceuticals, Inc., priority 2018, published 2025):
Values joined by “and” are separate entries in the source; they are usually repeats but may differ in a detail not shown here. Equal entries are not always repeated. Where a SMILES comes first, the peptide text is derived from it. [ ]: non-standard residue; d: D form. NMeThr(4R-Me,4-(CH2)6NHAc) = CN[C@H](C(=O)O)[C@H](O)[C@H](C)CCCCCCNC(C)=O; NMeL = CN[C@@H](CC(C)C)C(=O)O; NMeV = CN[C@H](C(=O)O)C(C)C; dNMeA = CN[C@H](C)C(=O)O; Abu = CC[C@H](N)C(=O)O

Tests used:
[1] = in vivo; parameters: species or system Sprague Dawley rats; details: Sprague Dawley, rat, po, 30 mg/kg/day, liver level relative to whole blood
Experimental: SERIES 1 1/3/3/2/9 (Vitamin E/Maisine® CC/Propylene Glycol/Ethanol/Cremophor® RH40 (w/w/w/w/w)) CRV431 SMEDDS (50 mg/ml) was administered to Sprague Dawley rats (n=6) by oral gavage at 30 mg/kg/day for 7 days. At 12 hours post-dose on day 7, the animals were sacrificed and whole blood and livers were extracted and frozen. CRV431 was quantitated in whole blood using LC-ESI-MS (as for the human pharmacokinetic studies). For quantitation of CRV431 in liver, one gram samples of liver tissue were added to 9 ml of homogenizing solution (1% formic acid in water) and homogenized using a TissueLyser (Qiagen) at 30 Hz for 10 minutes. Aliquots were removed and analyzed by LC-ESI-MS as described above.

[2] = in vitro; details: human, pH 7.4
Experimental: (§1) The supernatant was collected, diluted 1:1 with methanol, and drug concentrations measured by HPLC (Agilent 1100 series, UV detection) relative to standard curves. The polar surface area and log P were calculated using Molinspiration Cheminformatics (V2018.10, USA). Plasma protein binding was determined by equilibrium dialysis assays. Drug plasma samples were prepared to achieve a final concentration of 5 μM in human blood plasma by 500-fold dilution of 2.5 mM DMSO-drug stocks. Plasma solutions (300 μl) and PBS, pH 7.4 (500 μl), were added to adjacent chambers of Rapid Equilibrium Dialysis units (Thermo Scientific; 8K MWCO). Plates were sealed with plastic film and shaken on an orbital shaker at 225 rpm at 37° C. for 4.5 hr. Plasma and PBS samples were collected, and drugs extracted with a zinc sulfate/methanol precipitation method. After centrifugation at 3,300 rpm for 10 min, soluble drugs in methanol supernatants were analyzed by Liquid Chromatography (LC) Electrospray Ionization (ESI) Mass Spectrometry (LC-ESI-MS) (Agilent 1100 series, Santa Clara, USA) and quantified relative to standard curves.

[3] = clinical; parameters: species or system human; details: in vivo
Experimental: The study was conducted at a clinical research facility for investigational medicines (Celerion, Arizona, USA) as part of a clinical Phase 1 single-ascending-dose (SAD) study and followed all FDA ethical guidelines. Patients were selected according to standardized inclusion/exclusion criteria for a Phase I SAD study. Healthy volunteers 18-55 years of age with no evidence of ongoing disease (as determined by the study investigator), or any use of nicotine (30 days prior to screening), or drugs of abuse (within the preceding 2 years), or use of chronic prescription medication (within 30 days), or acute prescription medication (within 14 days), or systemic over-the-counter medications including vitamins and herbal/natural supplements (within 7 days prior to the study dose) were enrolled in the study. The SMEDDS was dispensed (approximately 3 ml) into a 100 ml Gibco clear bottle and a 15-fold excess of filtered water (HPLC grade) was added. The mixture was swirled gently for 1-2 minutes until fully dispersed. The SMEDDS in-water dose was placed in the refrigerator and orally administered within 2 hours. […] Samples were immediately frozen and analyzed by LC-ESI-MS within 5 days. Briefly, whole blood samples were thawed and extracted using a zinc sulfate/methanol precipitation method.

[4] = physchem; details: pH 7.4, aqueous buffer, kinetic from dmso stock
Experimental: as §1

## CC[C@@H]1NC(=O)[C@H]([C@H](O)[C@H](C)CCCCCCNC(C)=O)N(C)C(=O)[C@H](C(C)C)N(C)C(=O)[C@H](CC(C)C)N(C)C(=O)[C@H](CC(C)C)N(C)C(=O)[C@@H](C)NC(=O)[C@H](C)NC(=O)[C@H](CC(C)C)N(C)C(=O)[C@H](C(C)C)NC(=O)[C@H](CC(C)C)N(C)C(=O)[C@@H](C)N(C)C1=O [CRV431] (cyclo(A[dA][NMeL][NMeL][NMeV][NMeThr(4R-Me,4-(CH2)6NHAc)][Abu][dNMeA][NMeL]V[NMeL]))
[1]
  Kp: 6.5
[2]
  fraction unbound at 4.5 hr, 5 μM: 0.076
[3]; human
  half-life: ~4.17 days
[3]; human, po, 1 mg/kg
  Cmax: 334 ± 106 ng/mL
[3]; 2.5 mg/kg
  Cmax relative to Neoral®: slightly greater than Neoral®
  overall exposure (AUC) relative to Neoral®: approximately 14 times
[4]
  solubility: 115 µg/mL and 115 µM
